# Data published in publication PMC9320886, “Daily Intraperitoneal Administration of Rosiglitazone Does Not Improve Lung Function or Alveolarization in Preterm Rabbits Exposed to Hyperoxia” (Pharmaceutics, 2022).
# Read-outs that look alike come from different tables or passages of the source.
# Tests used:
# [1] = system: preterm rabbits exposed to hyperoxia; test: quantification of blood lipid levels; type: in vivo, rabbit
# Method: Whole blood samples from pups in the RGZ (1 and 10 mg/kg groups) and control groups (n = 6 per group) were obtained though cardiac puncture. Briefly, a 22G needle was inserted into the left ventricle and approximately 1.5 mL of whole blood were collected in K2-EDTA tubes and stored on ice. Within 60 min after blood draw, samples were centrifuged at 1500× g for 15 min and the […] was immediately stored at −80 °C. At the day of quantification, samples were gently thawed overnight at 4 °C and the level of triglycerides (TG), total cholesterol, high-density cholesterol (HDL), and non-HDL were determined using a Cobas 8000 modular analyzer (Roche).
# PPARγ = test: target engagement (TE%) evaluation from unbound plasma concentration and EC50
# Method: In a subsequent experimental session, we investigated the pulmonary outcomes of a higher intraperitoneal RGZ dose. To define the RGZ dose, a target engagement (TE%) evaluation was performed based on the unbound plasma and EC50 values for RGZ previously determined in vitro. […] TE% at each time point was calculated according to the following formula.
# [2] = Caco-2 permeability assay; type: in vitro ADME; details: human, apical to basolateral
# Method: Caco-2 cells were purchased from ReadyCell (Barcelona, Spain). The cells arrived already seeded and differentiated (21-days) in 96-well plates (CacoReady 96-well kits, ReadyCell). Cells were maintained in a cell culture medium: Dulbecco’s modified Eagle’s medium (DMEM) 1 g/L glucose containing 10% fetal bovine serum, 1% L-glutamine 200 mM, and 1% penicillin (10,000 U/mL)–streptomycin (10 mg/mL), all from Merck KGaA. The buffer used in the assay was Hanks Balanced Salt Solution (HBSS, Merck). Control compounds were: sulpiride (low permeability control), metoprolol (high permeability control), talinolol (P-glycoprotein transport (Pgp) substrate control), and GF120918 (Elacridar, Pgp inhibitor), all purchased from Merck KGaA.
# The day of the experiment, the integrity of the cell monolayers was assessed before and after the assay by measuring the transepithelial electrical resistance (TEER). The permeability of the compounds across the cell monolayer was determined by measuring their transport in both directions: apical to basolateral (A → B) and basolateral to apical (B → A) in the absence and presence of Elacridar (a known P-gp inhibitor). The donor working solution was prepared by dilution of the DMSO stock of the test compound or positive control with HBSS (pH 7.4) to 10 µM. For A → B directional transport, the donor working solution (with test compound or positive control, with or without P-gp inhibitor) was added to the apical (A) and HBSS was added to the basolateral (B) compartment. For B → A directional transport, the donor working solution (with positive control or test compound […], with or without P-gp inhibitor) was added to the basolateral (B) and HBSS was added to the apical (A) compartment. The assay was performed with a Hamilton Star Lab robotic system. Samples were collected at t0 and 2 h after incubation (5% CO2, 95% relative humidity, 37 °C) for LC-MS/MS analyses.
# Apparent permeability (Papp) was calculated with the following equation: (5) Papp(cm/sec)=(Vr/C0)×(1/A)×(Cr(t)/t) where Vr is the volume of the solution in the receiving compartment (mL); C0 is the initial test compound concentration in the donor compartment (expressed as area ratio); A is the membrane surface area (0.14 cm^2); Cr (t) is the measured concentration of the receiver well at time t120 (expressed as area ratio); and t is time of incubation (sec).
# [3] = daily 1 mg/kg, PND 7, vs vehicle, p < 0.01
compound,measurement,setting,value
"CN(CCOc1ccc(CC2SC(=O)NC2=O)cc1)c1ccccn1 (stereo not drawn) [RGZ, rosiglitazone]",serum non-HDL,[1]; [3],significantly increased
same,serum total cholesterol,[1]; [3],significantly increased
same,serum triglycerides,"[1]; daily 1 mg/kg, PND 7, vs vehicle, p < 0.05",significantly increased
same,serum lipids,"[1]; daily 10 mg/kg, PND 7, p < 0.0001 for all lipids",aberrant modulation
same,target engagement (TE%),PPARγ,40–60%
same,target engagement (TE%),PPARγ; linear scaling model to intraperitoneal 10 mg/kg,> 90%
same,target engagement (TE%),PPARγ; listed as rosiglitazone,50%
same,"Papp A→B at 2 h, 10 µM","[2]; Caco-2, pH 7.4, with Elacridar (GF120918), concentration not given, with Elacridar, read-out: Papp with Pgp Inhibitor (A–B)",16.3 ×10⁻⁶ cm/s
same,"Papp A→B at 2 h, 10 µM","[2]; Caco-2, pH 7.4, 10 µM, 2 h, without Pgp inhibitor, read-out: Papp (A–B)",14.5 ×10⁻⁶ cm/s
